The test system of assay [1] is SF-268 (human glioblastoma carcinoma). In words: Cytotoxicity assay (SRB). The assay is classed as cell-based. The settings on record: SF-268 cells, mean ± SD. The protocol:
(§1) The cells of SF-268 (human glioblastoma carcinoma), MCF-7 (breast cancer), HepG-2 (liver cancer), and A549 (lung cancer) were purchased from Stem Cell Bank, Chinese Academy of Sciences. The cells were cultured in DMEM medium (Gibco) containing 10% fetal bovine serum (Gibco) at 37 °C in a humidified atmosphere with 5% (v/v) CO2. The cells were incubated in cultural flasks until sub-confluent (~80%). Then, cells (180 μL) with a density of 3 × 10^4 cells/mL of media were seeded onto 96-well plates and incubated for 24 h at 37 °C, 5% CO2. Subsequently, 20 μL of different concentrations of compounds ranging from 1 to 128 μM in DMSO were added to each plate well. Equal volume of DMSO was used as a negative control. The plates were further incubated for 72 h. After incubation, cell monolayers were fixed with 50% (wt/v) trichloroacetic acid (50 μL) and stained for 30 min with 0.4% (wt/v) SRB dissolved in 1% acetic acid. Unbound dye was removed by washing repeatedly with 1% acetic acid. The protein-bound dye was dissolved in 10 mM Tris base solution (200 µL) for OD determination at 570 nm using a microplate reader. […] All data were obtained in triplicate and presented as means ± SD. IC50 values were calculated with the Sigma Plot 10.0 software (Systat Software Inc., CA, USA) using a non-linear curve-fitting method.

A further assay deals with A549 (lung cancer). The assay is described as follows: Cytotoxicity assay (SRB). Format: cell-based, human. Particulars: A549 cells, mean ± SD. The protocol:
as §1

The next assay concerns HepG2 (liver cancer). The assay is described as follows: Cytotoxicity assay (SRB). Format: cell-based, human. Particulars: HepG2 cells, mean ± SD. The protocol: as §1
The next assay deals with MCF-7 (breast cancer). In words: Cytotoxicity assay (SRB). The settings on record: MCF-7 cells, mean ± SD. The assay is classed as cell-based, human. As for the experimental part:
as §1

Assay [2] is described as follows: Antioxidative assay (DPPH radical scavenging). The settings on record: 12 h, 517 nm. The protocol: Sample stock solutions (10 mM) were diluted to final concentrations of 2, 4, 8, 16, 32, 64, and 128 μM in ethanol. Then, 100 μL 0.2 mmol/L DPPH ethanol solution was added to 100 μL sample solutions of different concentrations on 96-well plates, and allowed to react at room temperature. […] After 12 h, the absorbance values were measured at 517 nm and converted into the percentage antioxidant activity (AA) using the following formula: AA(%) = [1 − (Asample − Ablank)/Acontrol] × 100%. All data were obtained in triplicate and are presented as means ± S.D. EC50 values were calculated with the SigmaPlot 10.0 software (Systat Software Inc., CA, USA) using a non-linear curve-fitting method.
On the technique in general: The DPPH test is a chemical assay of radical scavenging.

In a further assay the target is α-glucosidase. In words: α-Glucosidase inhibitory activity assay (PNPG substrate). The assay is classed as biochemical. The settings on record: pH 6.8, 37 °C. As for the experimental part: Inhibitory α-glucosidase activities were determined spectrophotometrically in a 96-well microtiter plate based on p-nitrophenyl-α-D-glucopyranoside (PNPG) as a substrate. In brief, 20 μL 0.2 U/mL α-glucosidase enzyme solution, 50 μL 0.1 mol/L PBS (pH 6.8), and 10 μL of the test compounds in DMSO were mixed and preincubated at 37 °C prior to initiation of the reaction by adding the substrate. After 10 min of preincubation, 20 μL 5 mmol/L PNPG solution was added and then incubated together at 37 °C. After 15 min of incubation, 20 μL 0.2 mol/L Na2CO3 was added to the test tubes to stop the reaction. The absorbance values were measured at 405 nm and converted into percentage inhibitory activity using the following formula: AA(%) = [1 − Asample/(Anegative control − Ablank)] × 100%. […] All data were obtained in triplicate and presented as means ± SD. IC50 values were calculated with the Sigma Plot 10.0 software using a non-linear curve-fitting method.

A word on the IC50: it is the concentration that inhibits the measured activity by half. Higher therefore signals lower potency. By EC50 is commonly meant the concentration that produces a half-maximal response. Higher therefore signals a less potent agent. With `CCCCCC1(O)Cc2c3c(cc(O)c2C1=O)C=CC(C)(C)O3` (racemic) [(±)-3, Euroticin H], the IC50 in assay [1] (Homo sapiens, SF-268, 72 h) is over 100 µM; in the assay on A549 (lung cancer) (Homo sapiens, A549, 72 h), over 100 µM; with HepG2 (liver cancer) (Homo sapiens, HepG2, 72 h), over 100 µM; with MCF-7 (breast cancer) (Homo sapiens, MCF7, 72 h), over 100 µM; against α-glucosidase, 16.3 ± 1.68 µM. Moreover, the EC50 in assay [2] is over 100 µM.

Turning to `CCCCCCCC1(O)CC(C=CC(C)(C)O)=CC1=O` (single isomer, unassigned; (+)) [(+)-4, Euroticin I], the IC50 in assay [1] (72 h) is 12.7 ± 0.46 µM; in the assay on A549 (lung cancer) (72 h), 16.9 ± 0.92 µM; in the assay with HepG2 (liver cancer) (72 h), 19.9 ± 5.09 µM; in the assay on MCF-7 (breast cancer) (72 h) it was 20.5 ± 1.54 µM; on α-glucosidase, over 100 µM. The same molecule showed an EC50 in assay [2] of over 100 µM.

Consider `CCCCCCCC1(O)CC(C=CC(C)(C)O)=CC1=O` (single isomer, unassigned; (-)) [(−)-4, Euroticin I], for which the IC50 in assay [1] (Homo sapiens, SF-268, 72 h) was 23.7 ± 3.88 µM; with A549 (lung cancer) (Homo sapiens, A549, 72 h), 22.2 ± 1.54 µM; in the assay on HepG2 (liver cancer) (Homo sapiens, HepG2, 72 h), 19.5 ± 2.7 µM; in the assay with MCF-7 (breast cancer) (Homo sapiens, MCF7, 72 h) it was 23.6 ± 2.99 µM; against α-glucosidase, over 100 µM. Besides, in assay [2], the EC50 is over 100 µM.

Consider `CC(C)=CCc1cc2c(c(C=O)c1O)C1C(O)CCC1C(C)O2` (single isomer, unassigned; (-)) [(−)-5, eurotirumin], for which the IC50 in assay [1] (Homo sapiens, SF-268, 72 h) was 35.6 ± 1.79 µM; in the assay with A549 (lung cancer) (Homo sapiens, A549, 72 h) it was 42.6 ± 1.43 µM; in the assay with HepG2 (liver cancer) (Homo sapiens, HepG2, 72 h), 40.7 ± 2.76 µM; with MCF-7 (breast cancer) (Homo sapiens, MCF7, 72 h), 50.7 ± 2.48 µM; at α-glucosidase, over 100 µM. Further, the half-maximal effective concentration (EC50) in assay [2] was over 100 µM.

As for `CCCCC[C@H]1O[C@]2(C)Cc3c4c(cc(O)c3[C@H]1O2)C=CC(C)(C)O4` [(+)-1, Euroticin F], the IC50 is 21.9 ± 0.96 µM in assay [1] (Homo sapiens, SF-268, 72 h); 33.8 ± 0.34 µM in the assay on A549 (lung cancer) (Homo sapiens, A549, 72 h); 28 ± 1.68 µM in the assay with HepG2 (liver cancer) (Homo sapiens, HepG2, 72 h); 27.2 ± 2.03 µM with MCF-7 (breast cancer) (Homo sapiens, MCF7, 72 h); over 100 µM at α-glucosidase. For the same molecule, the EC50 in assay [2] was 42.3 ± 3.85 µM.

In the case of `CO[C@H]1O[C@@H]2CC[C@@H]([C@H](C)O)[C@@H]2c2c(O)cc(CC=C(C)C)c(O)c21` [(+)-2, Euroticin G], the IC50 in assay [1] (Homo sapiens, SF-268, 72 h) was over 100 µM; in the assay with A549 (lung cancer) (Homo sapiens, A549, 72 h), over 100 µM; with HepG2 (liver cancer) (Homo sapiens, HepG2, 72 h), over 100 µM; in the assay with MCF-7 (breast cancer) (Homo sapiens, MCF7, 72 h) it was over 100 µM; against α-glucosidase, 38 ± 2.73 µM. The molecule also yielded a concentration for a half-maximal effect (EC50) in assay [2] of 76.9 ± 0.99 µM.

As to `CC(C)=CCc1cc2c(c(C=O)c1O)[C@@H]1[C@H](CC[C@@H]1O)[C@@H](C)O2` [(+)-5, eurotirumin], the concentration for half-maximal inhibition (IC50) in assay [1] (Homo sapiens, SF-268, 72 h) was found to be 22 ± 0.88 µM; with A549 (lung cancer) (Homo sapiens, A549, 72 h), 47.3 ± 0.71 µM; in the assay on HepG2 (liver cancer) (Homo sapiens, HepG2, 72 h), 41.2 ± 2.63 µM; in the assay with MCF-7 (breast cancer) (Homo sapiens, MCF7, 72 h), 55.6 ± 4.85 µM; at α-glucosidase, 89.4 ± 7.86 µM. Further, the half-maximal effective concentration (EC50) in assay [2] is over 100 µM.

On to `CCCCC[C@@H]1O[C@@]2(C)Cc3c4c(cc(O)c3[C@@H]1O2)C=CC(C)(C)O4` [(−)-1, Euroticin F], for which the concentration for half-maximal inhibition (IC50) was 37.3 ± 2.46 µM in assay [1] (Homo sapiens, SF-268, 72 h); 33.4 ± 1.5 µM with A549 (lung cancer) (Homo sapiens, A549, 72 h); 30.7 ± 3.55 µM in the assay on HepG2 (liver cancer) (Homo sapiens, HepG2, 72 h); 28 ± 1.57 µM in the assay on MCF-7 (breast cancer) (Homo sapiens, MCF7, 72 h); over 100 µM on α-glucosidase. The EC50 in assay [2] was determined as 41.4 ± 2.68 µM.

In the case of `CO[C@@H]1O[C@H]2CC[C@H]([C@@H](C)O)[C@H]2c2c(O)cc(CC=C(C)C)c(O)c21` [(−)-2, Euroticin G], the IC50 in assay [1] (Homo sapiens, SF-268, 72 h) was over 100 µM; in the assay with A549 (lung cancer) (Homo sapiens, A549, 72 h), over 100 µM; in the assay on HepG2 (liver cancer) (Homo sapiens, HepG2, 72 h) it was over 100 µM; in the assay with MCF-7 (breast cancer) (Homo sapiens, MCF7, 72 h), over 100 µM; on α-glucosidase, 79.7 ± 1.74 µM. In assay [2], the half-maximal effective concentration (EC50) was found to be 77.1 ± 1.88 µM.

With `COc1cccc2c1C(=O)c1c(O)c3c(c(O)c1C2=O)C[C@@](O)(C(=O)CO)C[C@@H]3O[C@H]1C[C@H](N)[C@H](O)[C@H](C)O1` [Adriamycin, reference compound], the IC50 is 1.19 ± 0.03 µM in assay [1] (Homo sapiens, SF-268, 72 h); 1.73 ± 0.04 µM in the assay with A549 (lung cancer) (Homo sapiens, A549, 72 h); 1.99 ± 0.07 µM with HepG2 (liver cancer) (Homo sapiens, HepG2, 72 h); 2.02 ± 0.04 µM in the assay with MCF-7 (breast cancer) (Homo sapiens, MCF7, 72 h).

As for `O=C1O[C@H]([C@@H](O)CO)C(O)=C1O` [Ascorbic acid, reference compound], the EC50 in assay [2] worked out at 11.3 ± 0.56 µM.

Values taken from publication PMC8538301, “Structurally Diverse Polycyclic Salicylaldehyde Derivative Enantiomers from a Marine-Derived Fungus Eurotium sp. SCSIO F452” (Marine Drugs, 2021).
